Patent publication US10060933B2, “Methods for diagnosis and treatment of amyotrophic lateral sclerosis based on an increased level of interaction between TDP-43 polypeptide and NF-KB P65 polypeptide” (UNIVERSITE LAVAL, priority 2011, dated 2018)

Experiments:
endogenous mouse TDP-43 = assay: Western blot of TDP-43 after siRNA transfection of BV-2 cells; assay type: cell-based; settings: vs scrambled siRNA
Description: (§1) If correct that TDP-43 acts as a co-activator of p65, then reducing the levels of TDP-43 should attenuate p65 activation. To reduce the expression levels of TDP-43, microglial BV-2 cells were transfected with either TDP-43 siRNA or scrambled siRNA together with 4κB^wt-luc vectors. 72 hrs after transfection some of the cells were either stimulated with LPS (100 ng/ml) or mock stimulated for 12 hrs. […] To examine the effect of reducing TDP-43 levels on NF-κB activation, BV-2 cells were transfected with pCMV-p65 and 4κB^wt-luc vectors. TDP-43 siRNA decreased activation of NF-κB reporter gene in transfected cells. The decrease in NF-κB activation was about 3-fold for 5 ng pCMV-p65 (n=4, p<0.01) and about 2.5-fold for 10 and 20 ng pCMV-p65 (n=4, p<0.05) and 2-fold for 50 ng pCMV-p65 (n=4, p<0.05) as compared to scrambled siRNA transfected cells (FIG. 5B). To examine the physiological significance of TDP-43 inhibition by siRNA, we transfected BV-2 cells with ICAM1-luc vector together with TDP-43 siRNA or scrambled siRNA. 72 hrs after transfection, cells were stimulated with varying concentrations of TNF-α. […] We also tested the effect of TDP-43 siRNA transfected in bone-marrow derived macrophages (BMMs) from normal mice. We compared the level of innate immunity activation when stimulated with LPS.
To selectively prevent TDP-43 expression, we employed the RNA interference technology. […]

NF-κB = assay: 4κB^wt-luc NF-κB reporter gene assay in BV-2 cells; assay type: cell-based, mouse
Description: as §1
(§2) BV2 cells were harvested in 120 μl of cell lysis buffer (Promega, Madison, Wis., USA), and an ensuing 1-min centrifugation step (20,000×g) yielded a luciferase-containing supernatant. In both cases aliquots of 20-μl supernatant were tested for luciferase activity (luciferase assay kit, Promega) and for β-galactosidase activity (β-galactosidase assay kit, Promega) to adjust for transfection efficiency.
(§3) To selectively prevent TDP-43 expression, we employed the RNA interference technology. A double-stranded RNA (siRNA) was employed to degrade TDP-43 mRNA and thus to limit the available protein. The siRNA experiments were designed and conducted as described earlier^26. The siRNAs directed against the murine TDP-43 mRNA (NM_145556.4) consisted of sequences with symmetrical 3′-UU overhangs using siRNA Target Finder (Ambion, Tex., USA). […] To account for the non-sequence-specific effects, scrambled siRNA was used. The sequence of scrambled siRNA is as follows: 5′-[…]-3′ (SEQ ID NO:19) and 5′-[…]-3′ (SEQ ID NO:20). TDP-43 siRNAs or the scrambled siRNAs were suspended in diethyl […] water to yield desired concentration. For in vitro transfection, cells were plated in 24-well plates and transfected with 0.6 μmol/L siRNAs with 2 μL Lipofectamine 2000 (Invitrogen). The cells were then kept for 72 h in OptiMEM medium (Gibco).

[1] = system: ICAM-1 luciferase activity; assay: ICAM1-luc luciferase assay in TNF-α stimulated BV-2 cells; assay type: cell-based, mouse; settings: vs scrambled siRNA
Description: as §1, §2
To selectively prevent TDP-43 expression, we employed the RNA interference technology. A double-stranded RNA (siRNA) was employed to degrade TDP-43 mRNA and thus to limit the available protein. The siRNA experiments were designed and conducted as described earlier^26. […]

[2] = system: bone-marrow derived macrophages (BMMs); assay: Real-time RT-PCR of innate immunity genes in LPS stimulated bone-marrow derived macrophages; assay type: cell-based, mouse; settings: vs scrambled siRNA
Description: as §1
Real-time RT-PCR was performed with a LightCycler 480 (Roche Diagnostics) sequence detection system using LightCycler SYBR Green I at the Quebec genomics Centre, Quebec. Total RNA was extracted from cell culture experiments using Trizol reagent (Invitrogen). Total RNA was treated with DNase (Qiagen, Valencia, Calif., USA) to get rid of genomic DNA contaminations. Total RNA was the quantified using Nanodrop and its purity verified by Bioanalyzer 2100 (Agilent Technologies, Santa Clara, Calif., USA). Gene-specific primers were constructed using the GeneTools (Biotools Inc.) software. 3 genes Atp5, Hprt1 and GAPDH were used as internal control genes. The primers used for the analysis of genes are given in S-Table 2 (Swamp et al. J Exp Med 2011, 208, 2429-2447).
as §3

TDP-43 siRNA: double-stranded siRNA against murine TDP-43 mRNA: 5′-AGGAAUCAGCGUGCAUAUAUU-3′ (SEQ ID NO:17), 5′-UAUAUGCACGCUGAUUCCUUU-3′ (SEQ ID NO:18) (listed as RNA, chemistry not given here)
endogenous mouse TDP-43 levels (western blot) (endogenous mouse TDP-43): reduced the endogenous mouse TDP-43 levels significantly
decrease in NF-κB activation (4κB^wt-luc reporter) (NF-κB; 5 ng pCMV-p65, vs scrambled siRNA): about 3 fold
decrease in NF-κB activation (4κB^wt-luc reporter) (NF-κB; 10 ng pCMV-p65, vs scrambled siRNA): about 2.5 fold
decrease in NF-κB activation (4κB^wt-luc reporter) (NF-κB; 20 ng pCMV-p65, vs scrambled siRNA): about 2.5 fold
decrease in NF-κB activation (4κB^wt-luc reporter) (NF-κB; 50 ng pCMV-p65, vs scrambled siRNA): 2 fold
decrease in ICAM-1 luciferase activity ([1]; 0.5 ng/ml TNF-α): 2 fold
decrease in ICAM-1 luciferase activity ([1]; 1.0 ng/ml TNF-α): 2.5 fold
decrease in ICAM-1 luciferase activity ([1]; 1.5 ng/ml TNF-α): 2 fold
reduced levels of Cox-2 mRNA [2]: 2 fold
reduced levels of IL-1β mRNA [2]: 2 fold
reduced levels of IL-6 mRNA [2]: 2.5 fold
reduced levels of IP-10 mRNA [2]: 2 fold
reduced levels of TLR2 mRNA [2]: 1.5 fold
reduced levels of TNF-α mRNA [2]: 3 fold
reduced levels of p65 (RELA) mRNA [2]: 3 fold
